Data as given in patent publication EP4707277A1, “NOVEL HETEROCYCLIC AMINE DERIVATIVES AND PHARMACEUTICAL COMPOSITION COMPRISING SAME” (Daewoong Pharmaceutical Co., Ltd., priority 2023, dated 2024).

Tests used:
BTK = target: T1, BTK (Homo sapiens, UniProt Q06187); experiment: Inhibitory activity against BTK, ADP-Glo Kinase system (Promega); type: biochemical; conditions: 1mM ATP; read-out: BTK IC50(nM) 1mM ATP
T1 construct: purchased Signalchem B10-10H
Procedure, shortened: (§1)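 IC50 values were fitted from kinase reactions run for 1 h at 30°C with either 1 mM ATP or ATP at Km (10 µM for BTK, 25 µM for ITK). Reactions used 0.2 µg/µl poly(Glu4,Tyr1), recombinant human enzyme (BTK 10 ng, ITK 4 ng per reaction) in Tris pH 7.5 Mn/Mg buffer with 1% DMSO. ADP formed was read by ADP-Glo luminescence.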

ITK = target: T2, ITK (Homo sapiens, UniProt Q08881); experiment: Inhibitory activity against ITK, ADP-Glo Kinase system (Promega); type: biochemical; conditions: 1mM ATP; read-out: ITK IC50(nM) 1mM ATP
T2 construct: purchased Signalchem I13-11G-10
T2 sequence (Q08881 1-620): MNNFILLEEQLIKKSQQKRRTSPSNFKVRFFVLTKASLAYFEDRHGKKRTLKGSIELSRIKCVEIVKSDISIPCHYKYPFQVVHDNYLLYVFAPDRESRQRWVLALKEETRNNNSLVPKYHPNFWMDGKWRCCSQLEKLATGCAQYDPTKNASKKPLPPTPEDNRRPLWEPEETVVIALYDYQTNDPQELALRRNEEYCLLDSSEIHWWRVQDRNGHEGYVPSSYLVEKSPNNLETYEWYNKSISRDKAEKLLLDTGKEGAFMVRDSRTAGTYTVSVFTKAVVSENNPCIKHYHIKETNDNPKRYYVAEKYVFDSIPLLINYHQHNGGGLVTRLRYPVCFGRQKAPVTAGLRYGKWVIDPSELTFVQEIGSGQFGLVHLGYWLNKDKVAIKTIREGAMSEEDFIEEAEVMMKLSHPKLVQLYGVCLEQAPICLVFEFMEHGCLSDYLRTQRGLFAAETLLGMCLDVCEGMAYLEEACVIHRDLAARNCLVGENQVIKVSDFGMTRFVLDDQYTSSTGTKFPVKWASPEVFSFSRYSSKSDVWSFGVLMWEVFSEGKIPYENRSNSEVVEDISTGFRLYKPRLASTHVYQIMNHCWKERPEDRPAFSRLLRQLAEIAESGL
Procedure, shortened: as §1

T1 sequence (Q06187 whole entry): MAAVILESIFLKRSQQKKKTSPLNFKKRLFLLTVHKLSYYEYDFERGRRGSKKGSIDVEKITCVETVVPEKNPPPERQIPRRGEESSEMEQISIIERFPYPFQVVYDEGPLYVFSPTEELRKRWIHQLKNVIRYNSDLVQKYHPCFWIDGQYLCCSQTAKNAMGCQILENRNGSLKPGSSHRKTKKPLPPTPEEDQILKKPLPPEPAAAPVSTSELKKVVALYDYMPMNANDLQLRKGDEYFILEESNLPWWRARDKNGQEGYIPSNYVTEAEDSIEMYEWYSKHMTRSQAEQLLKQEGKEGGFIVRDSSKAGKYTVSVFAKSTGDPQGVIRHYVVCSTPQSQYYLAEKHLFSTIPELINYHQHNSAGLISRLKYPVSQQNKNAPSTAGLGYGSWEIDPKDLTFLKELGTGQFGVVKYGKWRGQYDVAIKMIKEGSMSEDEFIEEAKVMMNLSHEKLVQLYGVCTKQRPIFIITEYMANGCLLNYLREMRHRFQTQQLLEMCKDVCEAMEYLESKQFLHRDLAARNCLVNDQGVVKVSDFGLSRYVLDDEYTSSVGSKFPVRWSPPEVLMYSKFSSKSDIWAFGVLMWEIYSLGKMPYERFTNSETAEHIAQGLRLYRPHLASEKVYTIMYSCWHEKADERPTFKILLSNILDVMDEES

Row | Structure (SMILES) | IC50 (BTK) | IC50 (ITK)
1 | C=CC(=O)N1C[C@@H](F)[C@H](Oc2nc(Nc3ncc(C)s3)cc3c2ccn3C[C@@H](C)CC)C1 [Example 175, 1-((3R,4R)-3-fluoro-4-((1-((S)-2-methylbutyl)-6-((5-methylthiazol-2-yl)amino)-1H-pyrrolo[3,2-c]pyridin-4-yl)oxy)pyrrolidin-1-yl)prop-2-en-1-one] | ≤ 20 nM | ≤ 20 nM
2 | C=CC(=O)N1CC(C)(Oc2nc(Nc3ncc(C)s3)cc3c2ccn3CCC)C1 [Example 176, 1-(3-methyl-3-((6-((5-methylthiazol-2-yl)amino)-1-propyl-1H-pyrrolo[3,2-c]pyridin-4-yl)oxy)azetidin-1-yl)prop-2-en-1-one] | ≤ 20 nM | ≤ 20 nM
3 | C=CC(=O)N1CC(C)(Oc2nc(Nc3ncc(C)s3)cc3c2ccn3CCC(C)C)C1 [Example 177, 1-(3-((1-isopentyl-6-((5-methylthiazol-2-yl)amino)-1H-pyrrolo[3,2-c]pyridin-4-yl)oxy)-3-methylazetidin-1-yl)prop-2-en-1-one] | ≤ 20 nM | ≤ 20 nM
4 | C=CC(=O)N1CC(C)(Oc2nc(Nc3ncc(C)s3)cc3c2ccn3CC2CCCC2)C1 [Example 178, 1-(3-((1-(cyclopentylmethyl)-6-((5-methylthiazol-2-yl)amino)-1H-pyrrolo[3,2-c]pyridin-4-yl)oxy)-3-methylazetidin-1-yl)prop-2-en-1-one] | ≤ 20 nM | ≤ 20 nM
5 | C=CC(=O)N1C[C@@H](Oc2nc(Nc3ncc(C)s3)cc3c2ccn3CC(C)C)C[C@@H]1C [Example 179, 1-((2S,4S)-4-((1-isobutyl-6-((5-methylthiazol-2-yl)amino)-1H-pyrrolo[3,2-c]pyridin-4-yl)oxy)-2-methylpyrrolidin-1-yl)prop-2-en-1-one] | ≤ 20 nM | ≤ 20 nM
6 | C=CC(=O)N1C[C@@H](Oc2nc(Nc3ncc(C)s3)cc3c2ccn3CC2CC2)C[C@@H]1C [Example 180, 1-((2S,4S)-4-((1-(cyclopropylmethyl)-6-((5-methylthiazol-2-yl)amino)-1H-pyrrolo[3,2-c]pyridin-4-yl)oxy)-2-methylpyrrolidin-1-yl)prop-2-en-1-one] | ≤ 20 nM | ≤ 20 nM
7 | C=CC(=O)N1C[C@H](F)[C@H](Oc2nc(Nc3ncc(C#N)s3)cc3c2ccn3CC(C)C)C1 [Example 181, 2-((4-(((3R,4S)-1-acryloyl-4-fluoropyrrolidin-3-yl)oxy)-1-isobutyl-1H-pyrrolo[3,2-c]pyridin-6-yl)amino)thiazole-5-carbonitrile] | ≤ 20 nM | ≤ 20 nM
8 | C=CC(=O)N1C[C@H](F)[C@H](Oc2nc(Nc3ncc(C(=O)NC)s3)cc3c2ccn3CC(C)C)C1 [Example 182, 2-((4-(((3R,4S)-1-acryloyl-4-fluoropyrrolidin-3-yl)oxy)-1-isobutyl-1H-pyrrolo[3,2-c]pyridin-6-yl)amino)-N-methylthiazole-5-carboxamide] | ≤ 20 nM | ≤ 20 nM
9 | C=CC(=O)N1CC[C@H](Oc2nc(Nc3nccc(OC)n3)cc3c2ccn3C(C)C)C1 [Example 183, (S)-1-(3-((1-isopropyl-6-((4-methoxypyrimidin-2-yl)amino)-1H-pyrrolo[3,2-c]pyridin-4-yl)oxy)pyrrolidin-1-yl)prop-2-en-1-one] | > 500 nM | > 500 nM
10 | C=CC(=O)N1CC[C@H](Oc2nc(Nc3nccnc3OC)cc3c2ccn3C(C)C)C1 [Example 184, (S)-1-(3-((1-isopropyl-6-((3-methoxypyrazin-2-yl)amino)-1H-pyrrolo[3,2-c]pyridin-4-yl)oxy)pyrrolidin-1-yl)prop-2-en-1-one] | > 500 nM | > 500 nM
11 | C=CC(=O)N1C[C@@H](Oc2nc(Nc3ncc(C)s3)cc3c2ccn3C)C[C@@H]1C [Example 185, 1-((2S,4S)-2-methyl-4-((1-methyl-6-((5-methylthiazol-2-yl)amino)-1H-pyrrolo[3,2-c]pyridin-4-yl)oxy)pyrrolidin-1-yl)prop-2-en-1-one] | ≤ 20 nM | ≤ 20 nM
12 | C=CC(=O)N1C[C@@H](Oc2nc(Nc3ncc(C)s3)cc3c2ccn3CC)C[C@@H]1C [Example 186, 1-((2S,4S)-4-((1-ethyl-6-((5-methylthiazol-2-yl)amino)-1H-pyrrolo[3,2-c]pyridin-4-yl)oxy)-2-methylpyrrolidin-1-yl)prop-2-en-1-one] | ≤ 20 nM | ≤ 20 nM
13 | C=CC(=O)N1C[C@@H](Oc2nc(Nc3ncc(C)s3)cc3c2ccn3CCC)C[C@@H]1C [Example 187, 1-((2S,4S)-2-methyl-4-((6-((5-methylthiazol-2-yl)amino)-1-propyl-1H-pyrrolo[3,2-c]pyridin-4-yl)oxy)pyrrolidin-1-yl)prop-2-en-1-one] | ≤ 20 nM | ≤ 20 nM
14 | C=CC(=O)N1CC[C@H](Oc2nc(Nc3ncc(C)s3)cc3c2ccn3CCF)C1 [Example 188, (S)-1-(3-((1-(2-fluoroethyl)-6-((5-methylthiazol-2-yl)amino)-1H-pyrrolo[3,2-c]pyridin-4-yl)oxy)pyrrolidin-1-yl)prop-2-en-1-one] | ≤ 20 nM | ≤ 20 nM
15 | C=CC(=O)N1C[C@H](F)[C@H](Oc2nc(Nc3ncc(C)s3)cc3c2ccn3CCF)C1 [Example 189, 1-((3S,4R)-3-fluoro-4-((1-(2-fluoroethyl)-6-((5-methylthiazol-2-yl)amino)-1H-pyrrolo[3,2-c]pyridin-4-yl)oxy)pyrrolidin-1-yl)prop-2-en-1-one] | ≤ 20 nM | ≤ 20 nM
16 | C=CC(=O)N1CC[C@H](Oc2nc(Nc3ncc(C)s3)cc3c2ccn3CCCF)C1 [Example 190, (S)-1-(3-((1-(3-fluoropropyl)-6-((5-methylthiazol-2-yl)amino)-1H-pyrrolo[3,2-c]pyridin-4-yl)oxy)pyrrolidin-1-yl)prop-2-en-1-one] | ≤ 20 nM | ≤ 20 nM
17 | C=CC(=O)N1C[C@H](F)[C@H](Oc2nc(Nc3ncc(C)s3)cc3c2ccn3CCCF)C1 [Example 191, 1-((3S,4R)-3-fluoro-4-((1-(3-fluoropropyl)-6-((5-methylthiazol-2-yl)amino)-1H-pyrrolo[3,2-c]pyridin-4-yl)oxy)pyrrolidin-1-yl)prop-2-en-1-one] | ≤ 20 nM | ≤ 20 nM
18 | C=CC(=O)N1CC[C@H](Oc2nc(Nc3cc[nH]n3)cc3c2ccn3C(C)C)C1 [Example 192, (S)-1-(3-((6-((1H-pyrazol-3-yl)amino)-1-isopropyl-1H-pyrrolo[3,2-c]pyridin-4-yl)oxy)pyrrolidin-1-yl)prop-2-en-1-one] | ≤ 20 nM | 100 to 500 nM
19 | C=CC(=O)N1CC[C@H](Oc2nc(Nc3ccn(C)n3)cc3c2ccn3C(C)C)C1 [Example 193, (S)-1-(3-((1-isopropyl-6-((1-methyl-1H-pyrazol-3-yl)amino)-1H-pyrrolo[3,2-c]pyridin-4-yl)oxy)pyrrolidin-1-yl)prop-2-en-1-one] | > 500 nM | > 500 nM
20 | C=CC(=O)N1CC[C@H](Oc2nc(Nc3cc(C)[nH]n3)cc3c2ccn3C(C)C)C1 [Example 194, (S)-1-(3-((1-isopropyl-6-((5-methyl-1H-pyrazol-3-yl)amino)-1H-pyrrolo[3,2-c]pyridin-4-yl)oxy)pyrrolidin-1-yl)prop-2-en-1-one] | ≤ 20 nM | 20 to 100 nM
21 | C=CC(=O)N1C[C@H](F)[C@H](Oc2nc(Nc3cc[nH]n3)cc3c2ccn3CC(C)C)C1 [Example 195, 1-((3R,4S)-3-((6-((1H-pyrazol-3-yl)amino)-1-isobutyl-1H-pyrrolo[3,2-c]pyridin-4-yl)oxy)-4-fluoropyrrolidin-1-yl)prop-2-en-1-one] | 20 to 100 nM | 100 to 500 nM
